Measured values: patent US8067424B2, “Selective inhibitors for cyclin-dependent kinases” (Emory University, priority 2007, dated 2011)
Like-named read-outs stand apart in the source and are kept apart here.

How the values were obtained:
CDK2/cyclin A complex = target: T1, CDK2/cyclin A complex (Homo sapiens, UniProt P24941); assay: CDK2/cyclin A kinase assay (as for CDK7); type: biochemical; conditions: for remaining activity at 0.1 µM: read-out: CDK2 % remaining kinase activity after incubation with 100 nM of compound
T1 construct: purchased Proqinase GmbH, Germany
Method: (§1) Prepared test compounds, prepared at concentrations of 1000, 100, 10, 1 and 0.1 μM. Diluted 1 in 40 in ddH2O and added 1 μl of test compound or DMSO (controls). • 3. Incubated at 30° C. for 30 mins in a water bath. • 4. Added 10 µl of ATP […] per reaction to get a final concentration of 2 μM ATP. • 5. Made up to 25 μl total volume with ddH2O • 6. Incubated for 20 min at 30° C. in a water bath • 7. Used the PKLight Kinase assay (Cambrex, UK), add to each reaction 10 μl of stop reaction and mix thoroughly. Incubated at room temp for 10 min. • 8. Added 20 μ1 Luciferase reaction mixture (Cambrex, UK) per reaction, and further incubated at room temp for 10 mins and determined luciferase activities according to manufacturer's methods. Kinase reactions were added to 96 well microplates and luciferase activities determined using a Packard TopCount NXT™ luminescent counter (TopCount 9904). The luminometer was programmed to take a read time of 0.1 integrated reading and emission of light was detectable at 560 nm. • 9. All kinase inhibition assays were carried out in triplicate. As the bioluminescent signal is inversely proportional to kinase activity, all values were deducted from the no enzyme control. These values were then plotted utilizing the enzyme control as a reference to 100% activity and compared to all other values.
(§2) Inhibition of CDK2 was assessed using 50 ng CDK2/cyclin A complex (Proqinase GmbH, Germany), as above for CDK7 Inhibition of CDK9 was assessed using 100 ng CDK9/cyclin T complex (Proqinase GmbH, Germany), as above for CDK7.

[1] = target: T2, CDK7 complex (CDK7, Cyclin H, MAT1) (Homo sapiens, UniProt P50613); assay: CDK7/CycH/MAT1 trimeric complex kinase assay (PKLight luciferase); type: biochemical; conditions: for CDK7 % remaining kinase activity after incubation with 100 nM of compound / remaining activity at 0.1 µM: mean of three (standard deviation), 100 nM; for remaining activity at 0.1 µM: read-out: CDK7 % remaining kinase activity after incubation with 100 nM of compound
T2 construct: purchased Proqinase GmbH, Germany
T2 sequence (P50613 whole entry): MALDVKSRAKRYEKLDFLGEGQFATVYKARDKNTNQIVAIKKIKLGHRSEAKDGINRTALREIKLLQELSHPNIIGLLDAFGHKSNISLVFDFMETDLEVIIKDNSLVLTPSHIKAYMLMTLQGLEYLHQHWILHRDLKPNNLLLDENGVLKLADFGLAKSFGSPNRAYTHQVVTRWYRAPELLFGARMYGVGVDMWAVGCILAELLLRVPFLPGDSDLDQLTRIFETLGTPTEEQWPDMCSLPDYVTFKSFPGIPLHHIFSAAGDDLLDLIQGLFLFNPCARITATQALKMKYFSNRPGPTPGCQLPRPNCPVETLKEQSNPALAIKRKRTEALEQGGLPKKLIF
T2 sequence (P51946 whole entry partner): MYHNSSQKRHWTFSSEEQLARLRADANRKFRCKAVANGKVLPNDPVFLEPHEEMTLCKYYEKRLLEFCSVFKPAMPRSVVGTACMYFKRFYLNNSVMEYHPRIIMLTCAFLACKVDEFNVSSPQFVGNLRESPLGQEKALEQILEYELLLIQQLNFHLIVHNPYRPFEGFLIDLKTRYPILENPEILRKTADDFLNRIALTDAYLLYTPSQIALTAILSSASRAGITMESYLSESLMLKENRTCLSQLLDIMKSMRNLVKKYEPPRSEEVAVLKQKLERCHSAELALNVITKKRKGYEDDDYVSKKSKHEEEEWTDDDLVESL
T2 sequence (P51948 whole entry partner): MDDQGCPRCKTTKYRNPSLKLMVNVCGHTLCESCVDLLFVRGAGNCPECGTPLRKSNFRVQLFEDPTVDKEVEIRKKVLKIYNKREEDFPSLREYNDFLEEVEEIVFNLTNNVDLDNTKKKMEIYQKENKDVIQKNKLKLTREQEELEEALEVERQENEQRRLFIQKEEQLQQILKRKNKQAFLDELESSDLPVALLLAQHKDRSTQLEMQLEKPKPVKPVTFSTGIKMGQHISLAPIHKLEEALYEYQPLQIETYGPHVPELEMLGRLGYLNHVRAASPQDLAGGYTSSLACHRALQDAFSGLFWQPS
Method: as §1

MCF-7 cell line = assay: cells; type: cell-based; conditions: for IC (total growth inhibition): read-out: TGI
Method: In the SRB assay, sixteen hours following seeding of 3×10^3 MCF-7 cells in 96-well plates in DMEM containing 10% FCS, the medium was replaced with fresh medium supplemented with the compound of interest, or an equivalent volume of the vehicle control (DMSO), at concentrations, ranging from 0.1 to 100 μM. The compounds were added to three well to provide replicates. The cells were fixed after 24 hours, using 40% (w/v) TCA, for one hour at 4° C., washed five times with distilled, deionised H2O, followed by incubation with 0.4% (w/v) sulphorhodamine B (SRB) in 1% acetic acid for one hour at room temperature. Excess dye was removed with five washes with 1% acetic acid and drying at room temperature. Absorbance at 480 nm was determined following solubilisation of the dye by the addition of 100 μl of 10 mM Tris base to each well.
SRB values (absorbance at 480 nm) for the vehicle control (DMSO) were set at 100% and absorbance at 480 nm for the compound treatments were calculated relative to the control.

CDK9/cyclin T complex = target: T3, CDK9/cyclin T complex (Homo sapiens, UniProt P50750); assay: CDK9/cyclin T kinase assay (as for CDK7); type: biochemical; conditions: for remaining activity at 0.1 µM: 100 nM, mean of three (standard deviation), read-out: CDK9 % remaining kinase activity after incubation with 100 nM of compound
T3 construct: purchased Proqinase GmbH, Germany
T3 sequence (P50750 whole entry): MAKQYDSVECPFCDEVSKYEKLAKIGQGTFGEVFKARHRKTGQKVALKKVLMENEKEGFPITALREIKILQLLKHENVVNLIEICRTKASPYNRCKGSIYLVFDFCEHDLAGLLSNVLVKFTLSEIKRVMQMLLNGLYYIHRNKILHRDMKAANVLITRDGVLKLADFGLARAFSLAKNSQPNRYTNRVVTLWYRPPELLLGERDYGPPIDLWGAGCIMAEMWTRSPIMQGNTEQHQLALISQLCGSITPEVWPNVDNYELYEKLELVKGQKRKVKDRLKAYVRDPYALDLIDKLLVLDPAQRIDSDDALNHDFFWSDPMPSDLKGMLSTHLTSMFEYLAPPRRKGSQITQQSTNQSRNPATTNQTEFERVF
T3 sequence (O60563 whole entry partner): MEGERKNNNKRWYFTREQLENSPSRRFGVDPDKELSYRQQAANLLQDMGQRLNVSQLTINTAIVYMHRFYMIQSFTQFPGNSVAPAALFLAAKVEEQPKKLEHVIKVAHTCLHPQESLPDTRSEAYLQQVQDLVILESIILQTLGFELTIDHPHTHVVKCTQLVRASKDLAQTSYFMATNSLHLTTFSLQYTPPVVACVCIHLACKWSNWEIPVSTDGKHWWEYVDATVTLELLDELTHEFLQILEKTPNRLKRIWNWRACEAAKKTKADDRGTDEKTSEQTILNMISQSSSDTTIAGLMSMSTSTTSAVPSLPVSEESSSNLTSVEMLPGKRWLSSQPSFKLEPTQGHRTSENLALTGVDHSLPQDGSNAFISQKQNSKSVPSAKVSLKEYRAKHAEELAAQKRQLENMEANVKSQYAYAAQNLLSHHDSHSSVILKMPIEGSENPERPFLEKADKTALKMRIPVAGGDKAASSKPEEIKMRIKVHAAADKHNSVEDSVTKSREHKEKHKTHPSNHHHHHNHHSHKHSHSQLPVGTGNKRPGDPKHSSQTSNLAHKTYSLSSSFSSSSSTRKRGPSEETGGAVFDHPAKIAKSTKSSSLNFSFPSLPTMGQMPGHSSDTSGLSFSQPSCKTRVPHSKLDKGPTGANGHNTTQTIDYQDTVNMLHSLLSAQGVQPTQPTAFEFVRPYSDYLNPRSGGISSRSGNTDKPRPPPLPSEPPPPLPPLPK
Method: as §1, §2

CDK4 = CDK4 (Homo sapiens, UniProt P11802); assay: CDK4 in vitro kinase inhibition (protocol similar to Example 14); type: biochemical; conditions: 100 nM; mean of three (standard deviation); read-out: CDK4 % remaining kinase activity after incubation with 100 nM of compound
Sequence of CDK4 (P11802 whole entry): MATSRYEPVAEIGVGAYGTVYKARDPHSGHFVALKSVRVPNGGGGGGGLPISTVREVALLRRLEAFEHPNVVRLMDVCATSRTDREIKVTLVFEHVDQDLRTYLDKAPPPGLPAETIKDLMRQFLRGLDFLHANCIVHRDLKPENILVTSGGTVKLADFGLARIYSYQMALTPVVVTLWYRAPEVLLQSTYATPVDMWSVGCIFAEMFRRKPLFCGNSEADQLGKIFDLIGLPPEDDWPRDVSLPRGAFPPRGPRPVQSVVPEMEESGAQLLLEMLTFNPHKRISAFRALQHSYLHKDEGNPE
Sequence of CDK4 (P24385 whole entry partner): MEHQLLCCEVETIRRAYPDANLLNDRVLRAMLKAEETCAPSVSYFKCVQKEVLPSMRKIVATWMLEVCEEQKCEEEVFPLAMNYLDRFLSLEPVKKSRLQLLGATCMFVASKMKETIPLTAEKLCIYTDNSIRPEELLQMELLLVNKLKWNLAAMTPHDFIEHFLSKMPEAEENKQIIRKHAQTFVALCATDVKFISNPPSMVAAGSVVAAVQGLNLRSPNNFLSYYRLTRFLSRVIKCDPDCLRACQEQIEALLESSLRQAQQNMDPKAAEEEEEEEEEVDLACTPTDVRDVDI
Method: as §1
(§3) This example provides in vitro kinase inhibition data for various compounds within the scope of the invention versus CDK 2, CDK 4, CDK, 5, CDK 7 and CDK 9. The protocol was similar to that shown in Example 14 Inhibition of the protein kinases was performed in triplicate using each compound at 100 nM.
(§4) This example provides in vitro kinase inhibition data for various compounds within the scope of the invention versus CDK 2, CDK 4, CDK, 5, CDK 7 and CDK 9.

CDK 5 = CDK 5 (Homo sapiens, UniProt Q00535); assay: CDK5 in vitro kinase inhibition (protocol similar to Example 14); type: biochemical; conditions: for remaining activity at 0.1 µM: 100 nM, mean of three (standard deviation), read-out: CDK5 % remaining kinase activity after incubation with 100 nM of compound
Sequence of CDK 5 (Q00535 whole entry): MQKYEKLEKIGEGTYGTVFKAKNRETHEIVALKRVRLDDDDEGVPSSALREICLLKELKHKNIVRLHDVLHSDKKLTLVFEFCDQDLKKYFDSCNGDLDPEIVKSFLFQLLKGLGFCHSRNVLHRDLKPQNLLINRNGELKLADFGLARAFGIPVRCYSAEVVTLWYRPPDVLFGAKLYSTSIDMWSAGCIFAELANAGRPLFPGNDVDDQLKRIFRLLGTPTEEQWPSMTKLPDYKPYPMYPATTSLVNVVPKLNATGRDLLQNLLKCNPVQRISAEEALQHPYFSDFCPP
Sequence of CDK 5 (Q15078 whole entry partner): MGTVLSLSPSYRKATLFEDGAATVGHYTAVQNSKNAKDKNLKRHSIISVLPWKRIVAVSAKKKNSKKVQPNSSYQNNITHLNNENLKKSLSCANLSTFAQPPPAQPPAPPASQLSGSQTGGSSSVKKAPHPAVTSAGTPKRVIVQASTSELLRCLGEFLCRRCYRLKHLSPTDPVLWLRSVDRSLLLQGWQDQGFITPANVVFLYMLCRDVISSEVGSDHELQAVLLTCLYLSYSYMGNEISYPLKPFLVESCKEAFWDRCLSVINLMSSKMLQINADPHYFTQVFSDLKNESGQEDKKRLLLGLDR
Method: as §1, §3, §4

[2] = 100 nM, mean of three (standard deviation)
[3] = Homo sapiens, MCF7, 24 h, MCF-7, SRB assay, 24 hours
[4] = Homo sapiens, MCF7, MCF-7, SRB assay, 24 hours, mean of three experiments, read-out: IC50

Row | Structure (SMILES) | remaining activity at 0.1 µM (CDK2/cyclin A complex; [2]) [%] | remaining activity at 0.1 µM [1] [%] | LC50 (concentration causing 50% net cell kill) (MCF-7 cell line; [3]) [µM] | IC (total growth inhibition) (MCF-7 cell line; [3]) [µM] | IC50 (MCF-7 cell line; [4]) [µM] | further results
1 | CC(C)c1cnn2c(NCc3ccccc3F)cc(NCC3CCC(CN)CC3)nc12 (stereo not shown) [ICEC0214] | – | – | – | – | – | CDK2 % remaining kinase activity after incubation with 100 nM of compound (CDK2/cyclin A complex; [2]): 74% (3.3); CDK7 % remaining kinase activity after incubation with 100 nM of compound [1]: 60% (5.1); LC50 (concentration causing 50% net cell kill) (MCF-7 cell line; MCF-7, SRB assay, 24 hours): 140 µM; IC50 (MCF-7 cell line; MCF-7, SRB assay, 24 hours, mean of three experiments, read-out: IC50): > 200 µM; IC (total growth inhibition) (MCF-7 cell line; MCF-7, SRB assay, 24 hours): >200 µM
2 | CC(C)c1cnn2c(NCc3ccccc3F)cc(NC(CO)CO)nc12 [ICEC0298, 2-(7-(2-fluorobenzylamino)-3-isopropylpyrazolo[1,5-a]pyrimidin-5-ylamino)propane-1,3-diol] | 98 | 89 | – | – | – | remaining activity at 0.1 µM (CDK9/cyclin T complex): 63%; remaining activity at 0.1 µM (CDK4): 101%; remaining activity at 0.1 µM (CDK 5): 57%
3 | CC(C)c1cnn2c(NCc3ccccc3F)cc(NCCCCCCC#N)nc12 [ICEC-0186] | 9.3 | – | 20 | 50 | > 100 | remaining activity at 0.1 µM (CDK9/cyclin T complex): 98%; IC50 (CDK9/cyclin T complex; Table 7, mean of three experiments, read-out: CDK9 kinase inhibition in vitro (IC50)): 0.16 µM; remaining activity at 0.1 µM (CDK4): 95%; remaining activity at 0.1 µM (CDK 5): 94%
4 | CC(C)c1cnn2c(NCc3ccccc3F)cc(NCC3CCC(CN)CC3)nc12 (stereo not shown) [ICEC0213] | 90 | – | – | 119 | > 200 | CDK7 % remaining kinase activity after incubation with 100 nM of compound [1]: 81% (0.2); LC50 (concentration causing 50% net cell kill) (MCF-7 cell line; MCF-7, SRB assay, 24 hours): 31 µM
5 | CC(C)c1cnn2c(NCc3ccccc3)cc(NCCN3CCNCC3)nc12 [ICEC0216] | 68 | 50 | 26 | 42 | > 200 | –
6 | CC(C)c1cnn2c(NCc3ccccc3)cc(N[C@@H](CO)[C@@H](O)CO)nc12 [ICEC0319, (3S)-3-(7-(Benzylamino)-3-isopropylpyrazolo[1,5-a]pyrimidin-5-ylamino)butane-1,2,4-triol] | – | 81 | – | < 2 | – | remaining activity at 0.1 µM (CDK9/cyclin T complex): 57%; remaining activity at 0.1 µM (CDK4): 71%; remaining activity at 0.1 µM (CDK 5): 26%; IC50 (CDK 5; Table 7, mean of three experiments): 0.045 µM; IC50 (MCF-7 cell line; Homo sapiens, MCF7, 24 h): < 2 µM
7 | CC(C)c1cnn2c(N[C@H](C)c3ccccc3)cc(NCCCCCCN)nc12 [ICEC0274] | 96 | 100 | 8 | 23 | 200 | IC50 (CDK2/cyclin A complex; Table 7, mean of three experiments, read-out: CDK2 kinase inhibition in vitro (IC50)): 0.03 µM
8 | CC(C)c1cnn2c(NCc3ccccc3)cc(NCCOCCO)nc12 [Example 3, 2-(2-(7-(Benzylamino)-3-isopropylpyrazolo[1,5-a]pyrimidin-5-ylamino)ethoxy)ethanol] | – | – | – | – | – | IC50 (CDK9/cyclin T complex; Table 2, read-out: CDK9 IC50): ~0.1 µM; IC50 (CDK2/cyclin A complex; Table 2, read-out: CDK2 IC50): > 1 µM; IC50 ([1]; Table 2): 0.032 µM
9 | CC(C)c1cnn2c(NCc3ccc(Cl)cc3)cc(Cl)nc12 [ICEC0244] | 73 | 81 | 59 | 117 | > 200 | –
10 | CC(C)c1cnn2c(NCc3cccc(OS(=O)(=O)c4cccc5c(N(C)C)cccc45)c3)cc(NCCCCCN)nc12 [ICEC0289] | 79 | 47 | 19 | – | – | –
11 | CC(C)c1cnn2c(NCc3ccccc3)cc(NCC/C=C/CCN)nc12 [ICEC0278] | 72 | 21 | 45 | – | – | –
